Entries after “also recorded” stand apart in the source; their conditions may differ. Read-outs that look alike come from different tables or passages of the source.

The results in this text go back to publication PMC10403511, “DNA-encoded chemical libraries yield non-covalent and non-peptidic SARS-CoV-2 main protease inhibitors” (Communications Chemistry, 2023).

This test concerns the target T1, SARS-CoV-2 M^pro (Severe acute respiratory syndrome coronavirus 2, UniProt P0DTD1).
T1 construct: the gene for M^pro (ORF1ab residues 3264 to 3569, GenBank code: MN908947.3); Sumo fusion with M^pro cleavage site (SAVLQ↓SGFRK) (N, cleaved yes); 6xHis-tag behind PreScission site (SGVTFQ↓GP) (C); made in house; host or cells: E. coli BL21(DE3)
The experiment in a line: M^pro enzyme inhibition assay, proteolytic cleavage of fluorescent peptide reporter, Ki by Morrison equation. The class given is biochemical. The following applies: for decrease of activity compared to CDD-1733: from Ki values. The text has this:
Hydrolysis of the fluorescent peptide was monitored at an emission wavelength of 460 nm with an excitation wavelength of 360 nm using a TECAN M200 plate reader. Initial hydrolysis rates of fluorescent peptide were plotted as a function of compound concentrations, and Ki values were obtained by fitting the data into the Morrison equation[32] with SE from triplicates.
inhibitors. […] The remaining activities (red dots) of Mpro towards fluorescent
peptide we re plotted as a function of compound concentrations and Ki values wa s calculated by fitting the da ta int o Morrison equation wit h standard error f romS6 […]

Where [1] appears, read: 25 nM Mpro with authentic termini (no His-tag), standard error from triplicates, Inactive: less than 50% inhibition with 25 µM compound.
The mark [2] stands for this setting: 25 nM Mpro-6-His, standard error from triplicates, Inactive: less than 50% inhibition with 25 µM compound in initial screening.
Where [3] appears, read: Fig. 2, Suppl. Fig. 1, construct not given, Inactive: inhibited M^pro activity by less than 90% with 25 μM.
Setting [4] is: 25 nM Mpro with authentic termini (no His-tag), standard error from triplicates, Inactive: less than 50% inhibition with 25 µM compound, read-out: Mpro Ki.
The mark [5] stands for this setting: Fig. 2, Suppl. Fig. 1, construct not given, Inactive: inhibited M^pro activity by less than 90% with 25 μM, read-out: Ki.

Usually Ki stands for a dissociation constant, usually derived from enzyme kinetics or from competition with a known ligand. For the molecule `CNC(=O)CCCn1c(-c2ccc(N)nc2)nc2cccc(C(=O)N[C@@H](C)c3ccc4ccccc4c3)c21` [CDD-1926], the Ki result is “inactive or exhibit greatly decreased potency”, the “Mpro Ki” value is on record as “Inactive” and the “Mpro-His Ki” value was “Inactive”.
On to `CNC(=O)CCCn1c(-c2ccnc3ccccc23)nc2cccc(C(=O)N[C@@H](C)c3ccc4ccccc4c3)c21` [CDD-1906], for which the “Mpro Ki” value is listed as “Inactive” and the “Mpro-His Ki” value is reported as “Inactive”.
Consider `CCC[C@H](NC(=O)c1cccc2nc(-c3cccnc3)n([C@H]3C[C@H](C(=O)NC)C3)c12)c1ccc(C(F)(F)F)cc1` [CDD-1831], for which the “Mpro Ki” value under setting [1] was “Inactive”. The “Mpro-His Ki” value under setting [2] was “Inactive”. For the same molecule, the Ki entry under setting [3] is “total loss of activity; also recorded: inactive or exhibit greatly decreased potency”.
As to `CCC[C@H](NC(=O)c1cccc2nc(-c3cncc4ccccc34)n(C3CCNCC3)c12)c1ccc(C(F)(F)F)cc1` [CDD-1818], the inhibitory constant (Ki) was determined as 1470 nM (read-out: Ki) and 1710 ± 128 nM (read-out: Mpro Ki).
In the same order, the values of `CCC[C@H](NC(=O)c1cccc2nc(-c3cncc4ccccc34)n([C@H]3CC[C@H](C(=O)NC)C3)c12)c1ccc(C(F)(F)F)cc1` [CDD-1790] are 620 nM and 664 ± 66 nM.
With `CCC[C@H](NC(=O)c1cccc2nc(-c3cncc4ccccc34)n(C3CCC3)c12)c1ccc(C(F)(F)F)cc1` [CDD-1806], the “decrease of activity compared to CDD-1733” value is “more than 14 fold”. Under setting [3], the Ki entry is reported as “greatly reduces potency”.
Take `CNC(=O)[C@H]1C[C@H](n2c(-c3cncc4ccccc34)nc3cccc(C(=O)N[C@@H](C)c4ccccc4)c32)C1` [CDD-1841]: the inhibition constant (Ki) reads like this: (read-out: Ki) 571 nM; (read-out: Mpro Ki) 565 ± 55 nM.
On to `CCC[C@H](NC(=O)c1cccc2nc(-c3cncc4ccccc34)n([C@H]3C[C@H](C(=O)NC)C3)c12)c1cccc(C(F)(F)F)c1` [CDD-1795], for which the “decrease of activity compared to CDD-1733” value was “approximately 2 fold”. Further, the inhibition constant Ki under setting [4] was determined as 35 ± 5 nM. Under setting [5], the inhibition constant (Ki) was determined as 29 nM.
As to `CCC[C@H](NC(=O)c1cccc2nc(-c3cncc4ccccc34)n(C(C)C)c12)c1ccc(C(F)(F)F)cc1` [CDD-1804], the “Mpro Ki” value under setting [1] is reported as “Inactive”. Moreover, under setting [2], the “Mpro-His Ki” value is on record as “Inactive”. Besides, the inhibitory constant (Ki) result under setting [3] is recorded as “completely abolished; also recorded: greatly reduces potency”.
For the molecule `CNC(=O)CCCn1c(-c2cncc3ccccc23)nc2cccc(C(=O)NCc3ccc4ccccc4c3)c21` [CDD-1925], the Ki came out at 51 nM (read-out: Ki) and 42 ± 5 nM (read-out: Mpro Ki).
Consider `CCC[C@H](NC(=O)c1cccc2nc(-c3cncc4ccccc34)n([C@H]3C[C@H](C(=O)NC)C3)c12)c1ccccc1` [CDD-1843], for which the “Mpro Ki” value is given as “Inactive” and the “Mpro-His Ki” value is “Inactive”.
As to `CNC(=O)CCCn1c(-c2ccc3cnccc3c2)nc2cccc(C(=O)N[C@@H](C)c3ccc4ccccc4c3)c21` [CDD-1884], the inhibition constant (Ki) entry was “inactive or exhibit greatly decreased potency”, the “Mpro Ki” value was “Inactive” and the “Mpro-His Ki” value was “Inactive”.
Take `CCC[C@H](NC(=O)c1cccc2nc(-c3cncc4ccccc34)n(CCCC(=O)NC)c12)c1ccc(C(F)(F)F)cc1` [CDD-1830]: the inhibitory constant (Ki) reads like this: under setting [4], 6 ± 1 nM; (25 nM Mpro-6-His, standard error from triplicates, Inactive: less than 50% inhibition with 25 µM compound in initial screening, read-out: Mpro-His Ki) 6 ± 1 nM; under setting [5], 6 nM.
`CNC(=O)CCCn1c(-c2cccc3ccccc23)nc2cccc(C(=O)N[C@@H](C)c3ccc4ccccc4c3)c21` [CDD-1885]: the “Mpro Ki” value is given as “Inactive” and the “Mpro-His Ki” value is given as “Inactive”.
As for `CNC(=O)[C@H]1C[C@H](n2c(-c3cncc4ccccc34)nc3cccc(C(=O)N[C@@H](C)c4ccc(C(F)(F)F)cc4)c32)C1` [CDD-1829], the Ki reads like this: under setting [4], 48 ± 5 nM; under setting [5], 46 nM.
In the same order, the values of `CCC[C@H](NC(=O)c1cccc2nc(-c3cncc4ccccc34)n([C@H]3C[C@H](C(=O)NC)C3)c12)c1ccc(OC(F)F)cc1` [CDD-1780] are 16 ± 2 nM and 14 nM.
Turning to `CNC(=O)[C@H]1C[C@H](n2c(-c3cncc4ccccc34)nc3cccc(C(=O)NC(C)C)c32)C1` [CDD-1842], under setting [1], the “Mpro Ki” value is “Inactive”. For the same molecule, under setting [2], the “Mpro-His Ki” value is on record as “Inactive”. In addition, the inhibition constant Ki result under setting [3] is “completely inactive”.
As for `CNC(=O)CCCn1c(-c2cnccc2C)nc2cccc(C(=O)N[C@@H](C)c3ccc4ccccc4c3)c21` [CDD-1924], the Ki (read-out: Mpro Ki) came out at 426 ± 47 nM.
